Source: ChEMBL document CHEMBL6153142 (J Med Chem, 2025)
≈ marks a conversion by molar mass, not a printed value.

Key:
[1] = Cmax in fed Beagle dog at 30 mg/kg, po measured upto 24 hrs by LC-MS/MS analysis; assay type: ADME, organism-based, Canis lupus familiaris; conditions: in vivo
[2] = Half life in Beagle dog at 0.1 mg/kg, iv measured upto 24 hrs by LC-MS/MS analysis; assay type: ADME, organism-based, Canis lupus familiaris; conditions: in vivo
[3] = target: T1, Leukotriene C4 synthase (Mus musculus) (UniProt Q60860); assay: In-vivo inhibition of LTC4S in mastoparan-induced C57BL/6 mouse model assessed as reduction in LTE4 level in skin at 0.1 mg/kg, po preincubated for 1 hr by LC-MS analysis; assay type: functional, organism-based
T1 sequence (whole entry): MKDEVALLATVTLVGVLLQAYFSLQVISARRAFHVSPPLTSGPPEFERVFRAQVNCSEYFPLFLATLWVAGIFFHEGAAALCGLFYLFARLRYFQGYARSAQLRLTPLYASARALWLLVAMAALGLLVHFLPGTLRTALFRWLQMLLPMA

[4] = AUC (0 to infinity) in cynomolgus monkey at 0.3 mg/kg, po measured upto 24 hrs by LC-MS/MS analysis; assay type: ADME, organism-based, Macaca fascicularis; conditions: in vivo
[5] = Metabolic stability in monkey Hepatocyte assessed as clearance; assay type: ADME, cell-based, Macaca mulatta; conditions: rhesus monkey, hepatocytes
[6] = Metabolic stability in mouse Hepatocyte assessed as clearance; assay type: ADME, cell-based; conditions: hepatocytes
[7] = Octanol/water distribution coefficient log D of the compound at pH 7.4 by shake flask based LC-MS/MS analysis; assay type: physicochemical
[8] = Half life in cynomolgus monkey at 0.1 mg/kg, iv measured upto 24 hrs by LC-MS/MS analysis; assay type: ADME, organism-based, Macaca fascicularis; conditions: in vivo
[9] = Volume of distribution at steady state in cynomolgus monkey at 0.1 mg/kg, iv measured upto 24 hrs by LC-MS/MS analysis; assay type: ADME, organism-based, Macaca fascicularis; conditions: in vivo, read-out: Vdss
[10] = Cmax in C57BL6 mouse at 0.3 mg/kg, po measured upto 24 hrs by LC-MS/MS analysis; assay type: ADME, organism-based; conditions: in vivo
[11] = AUC (0 to infinity) in Beagle dog at 1 mg/kg, iv measured upto 24 hrs by LC-MS/MS analysis; assay type: ADME, organism-based, Canis lupus familiaris; conditions: in vivo
[12] = AUC (0 to infinity) in Sprague-Dawley rat at 3 mg/kg, po measured upto 24 hrs by LC-MS/MS analysis; assay type: ADME, organism-based; conditions: in vivo
[13] = Metabolic stability in dog Hepatocyte assessed as clearance; assay type: ADME, cell-based, Canis lupus familiaris; conditions: hepatocytes
[14] = Genotoxicity in Salmonella typhimurium by Ames micronucleus test; assay type: toxicity; conditions: salmonella enterica subsp. enterica serovar typhimurium
[15] = Cmax in cynomolgus monkey at 0.3 mg/kg, po measured upto 24 hrs by LC-MS/MS analysis; assay type: ADME, organism-based, Macaca fascicularis; conditions: in vivo
Cytochrome P450 2C9 = Cytochrome P450 2C9 (Homo sapiens, UniProt P11712); assay: Inhibition of CYP2C9 (unknown origin) at 25 uM relative to control; assay type: ADME
[16] = AUC (0 to infinity) in fed Beagle dog at 30 mg/kg, po measured upto 24 hrs by LC-MS/MS analysis; assay type: ADME, organism-based, Canis lupus familiaris; conditions: in vivo
[17] = Cmax in Sprague-Dawley rat at 3 mg/kg, po measured upto 24 hrs by LC-MS/MS analysis; assay type: ADME, organism-based; conditions: in vivo
[18] = Metabolic stability in human Hepatocyte assessed as clearance; assay type: ADME, cell-based; conditions: hepatocytes
[19] = Half life in C57BL6 mouse at 0.3 mg/kg, iv measured upto 24 hrs by LC-MS/MS analysis; assay type: ADME, organism-based; conditions: in vivo
[20] = Equilibrium solubility of compound at pH 6.8 using amorphous form of sample by HPLC analysis; assay type: physicochemical; conditions: buffer
[21] = AUC (0 to infinity) in C57BL6 mouse at 0.3 mg/kg, iv measured upto 24 hrs by LC-MS/MS analysis; assay type: ADME, organism-based; conditions: in vivo
[22] = Cmax in Sprague-Dawley rat at 3 mg/kg, po or 1 mg/kg, iv by LC-MS/MS analysis; assay type: ADME, organism-based; conditions: in vivo
[23] = Half life in Sprague-Dawley rat at 0.1 mg/kg, iv measured upto 24 hrs by LC-MS/MS analysis; assay type: ADME, organism-based; conditions: in vivo

Sequence of Cytochrome P450 2C9 (P11712 whole entry): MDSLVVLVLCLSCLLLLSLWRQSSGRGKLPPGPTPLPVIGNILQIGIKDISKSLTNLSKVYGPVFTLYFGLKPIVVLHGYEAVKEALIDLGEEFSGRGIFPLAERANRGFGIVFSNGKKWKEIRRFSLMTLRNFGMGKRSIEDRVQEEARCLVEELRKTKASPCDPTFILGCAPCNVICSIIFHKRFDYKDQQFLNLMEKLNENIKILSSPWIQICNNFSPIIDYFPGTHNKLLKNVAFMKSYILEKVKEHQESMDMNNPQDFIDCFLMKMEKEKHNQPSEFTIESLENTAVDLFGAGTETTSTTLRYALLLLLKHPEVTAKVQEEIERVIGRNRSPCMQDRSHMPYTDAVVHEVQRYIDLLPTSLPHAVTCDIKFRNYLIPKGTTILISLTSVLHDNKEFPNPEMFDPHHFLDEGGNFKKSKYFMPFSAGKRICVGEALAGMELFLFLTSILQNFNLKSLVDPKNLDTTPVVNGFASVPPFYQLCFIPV

O=C1CCCC2(CCN(c3cc(OCC(F)(F)F)ncn3)CC2)N1c1ccc(F)c(F)c1
Cmax [1]: 8350 nM | half-life [2]: 3.9 h | inhibition [3]: 64% | AUC(0-inf) [4]: 0.783 µM·h | CLH [5]: 23 µL/min | CLH [6]: 33 µL/min | logD [7]: 3.4 | half-life [8]: 2 h | Vd [9]: 2.8 L/kg | Cmax [10]: 383 nM | AUC(0-inf) [11]: 2.56 µM·h | AUC(0-inf) [12]: 1.81 µM·h | CLH [13]: 20 µL/min | Activity [14]: Non-toxic | Cmax [15]: 290 nM | inhibition (INH) (Cytochrome P450 2C9): Not_active | AUC(0-inf) [16]: 93.4 µM·h | Cmax [17]: 194 nM | CLH [18]: 4 µL/min | half-life [19]: 2.8 h | solubility thermodynamic [20]: 320 µM (≈ 146 µg/mL) | AUC [21]: 6.233 µM·h | Cmax [22]: 809 nM | half-life [23]: 3.2 h
